The assay concerns OPM2 cells. As to the kind of experiment: Cell proliferation assay (ViaLight, cellular ATP). In kind it is cell-based. Particulars: Homo sapiens, OPM-2, 120 h, 5 days, 5 μM to 1 nM. The protocol: OPM2 cells (1×10^3) were plated in a 96 well plate. Test compounds were added to cells at final concentrations ranging from 5 μM to 1 nM. They were incubated for 5 days before they were analysed using ViaLight luminescence-based proliferation assays which detect cellular ATP, as per the manufacturer's instructions. All samples were prepared in technical triplicates. Data analysis was performed in GraphPad Prism version 7.00 for Mac OS X, (GraphPad Software, San Diego California USA) in order to calculate the GI50.

`CC(=O)N1c2ccc(-c3cccc(CNC(=O)c4cn5cc(-c6cnc(N)nc6)nc(N6CCOCC6)c5n4)c3)cc2CC[C@@H]1C` [Cpd 011, (S)-N-(3-(1-acetyl-2-methyl-1,2,3,4-tetrahydroquinolin-6-yl)benzyl)-6-(2-aminopyrimidin-5-yl)-8-morpholinoimidazo[1,2-a]pyrazine-2-carboxamide]: the GI50 was in the range of 100 to 500 nM.

With `CC(=O)N1c2ccc(-c3ccc(C(=O)NCCNC(=O)c4cn5cc(-c6cnc(N)nc6)nc(N6CCOCC6)c5n4)cc3)cc2CC[C@@H]1C` [Cpd 012, (S)-N-(2-(4-(1-Acetyl-2-methyl-1,2,3,4-tetrahydroquinolin-6-yl)benzamido)ethyl)-6-(2-aminopyrimidin-5-yl)-8-morpholinoimidazo[1,2-a]pyrazine-2-carboxamide], the GI50 was no more than 100 nM.

On to `CC(=O)N1c2ccc(-c3ccc(C(=O)N4CCN(Cc5cn6cc(-c7cnc(N)nc7)nc(N7CCOCC7)c6n5)CC4)cc3)cc2CC[C@@H]1C` [Cpd 014, (S)-1-(6-(4-(4-((6-(2-Aminopyrimidin-5-yl)-8-morpholinoimidazo[1,2-a]pyrazin-2-yl)methyl)piperazine-1-carbonyl)phenyl)-2-methyl-3,4-dihydroquinolin-1(2H)-yl)ethan-1-one], for which the concentration for 50% growth inhibition (GI50) fell in the range of 100 to 500 nM.

In turn, `CC(=O)N1c2ccc(-c3ccc(CN4CCN(Cc5cn6cc(-c7cnc(N)nc7)nc(N7CCOCC7)c6n5)CC4)cc3)cc2CC[C@@H]1C` [Cpd 015, (S)-1-(6-(4-((4-((6-(2-Aminopyrimidin-5-yl)-8-morpholinoimidazo[1,2-a]pyrazin-2-yl)methyl)piperazin-1-yl)methyl)phenyl)-2-methyl-3,4-dihydroquinolin-1(2H)-yl)ethan-1-one] came in with a GI50 of 100 to 500 nM.

The molecule `CC(=O)N1c2ccc(-c3ccc(C(=O)NCc4cn5cc(-c6cnc(N)nc6)nc(N6CCOCC6)c5n4)cc3)cc2CC[C@@H]1C` [Cpd 016, (S)-4-(1-Acetyl-2-methyl-1,2,3,4-tetrahydroquinolin-6-yl)-N-((6-(2-aminopyrimidin-5-yl)-8-morpholinoimidazo[1,2-a]pyrazin-2-yl)methyl)benzamide] displayed a 50% growth inhibitory concentration (GI50) of 100 to 500 nM.

For `CC(=O)N1c2ccc(-c3cccc(C(=O)NCc4cn5cc(-c6cnc(N)nc6)nc(N6CCOCC6)c5n4)c3)cc2CC[C@@H]1C` [Cpd 017, (S)-3-(1-Acetyl-2-methyl-1,2,3,4-tetrahydroquinolin-6-yl)-N-((6-(2-aminopyrimidin-5-yl)-8-morpholinoimidazo[1,2-a]pyrazin-2-yl)methyl)benzamide], the 50% growth inhibitory concentration (GI50) fell in the range of 100 to 500 nM.

`CC(=O)N1c2ccc(-c3ccc(CC(=O)NCc4cn5cc(-c6cnc(N)nc6)nc(N6CCOCC6)c5n4)cc3)cc2CC[C@@H]1C` [Cpd 018, (S)-2-(4-(1-Acetyl-2-methyl-1,2,3,4-tetrahydroquinolin-6-yl)phenyl)-N-((6-(2-aminopy-rimidin-5-yl)-8-morpholinoimidazo[1,2-a]pyrazin-2-yl)methyl)acetamide]: the concentration for 50% growth inhibition (GI50) lay in the range of 100 to 500 nM.

Turning to `CC(=O)N1c2ccc(-c3cccc(CC(=O)NCc4cn5cc(-c6cnc(N)nc6)nc(N6CCOCC6)c5n4)c3)cc2CC[C@@H]1C` [Cpd 019, (S)-2-(3-(1-Acetyl-2-methyl-1,2,3,4-tetrahydroquinolin-6-yl)phenyl)-N-((6-(2-aminopy-rimidin-5-yl)-8-morpholinoimidazo[1,2-a]pyrazin-2-yl)methyl)acetamide], the GI50 lay within 100 to 500 nM.

For the molecule `CC(=O)N1c2ccc(-c3ccc(NC(=O)Cc4cn5cc(-c6cnc(N)nc6)nc(N6CCOCC6)c5n4)cc3)cc2CC[C@@H]1C` [Cpd 022, (S)-N-(4-(1-acetyl-2-methyl-1,2,3,4-tetrahydroquinolin-6-yl)phenyl)-2-(6-(2-aminopyrimidin-5-yl)-8-morpholinoimidazo[1,2-a]pyrazin-2-yl)acetamide], the 50% growth inhibitory concentration (GI50) is no more than 100 nM.

The molecule `CC(=O)N1c2ccc(-c3cccc(NC(=O)Cc4cn5cc(-c6cnc(N)nc6)nc(N6CCOCC6)c5n4)c3)cc2CC[C@@H]1C` [Cpd 023, (S)-N-(3-(1-acetyl-2-methyl-1,2,3,4-tetrahydroquinolin-6-yl)phenyl)-2-(6-(2-aminopyrimidin-5-yl)-8-morpholinoimidazo[1,2-a]pyrazin-2-yl)acetamide] gave a GI50 of 100 to 500 nM.

Turning to `CC(=O)N1c2ccc(-c3ccc(CNC(=O)Cc4cn5cc(-c6cnc(N)nc6)nc(N6CCOCC6)c5n4)cc3)cc2CC[C@@H]1C` [Cpd 024, (S)-N-(4-(1-acetyl-2-methyl-1,2,3,4-tetrahydroquinolin-6-yl)benzyl)-2-(6-(2-aminopyrimidin-5-yl)-8-morpholinoimidazo[1,2-a]pyrazin-2-yl)acetamide], the GI50 was greater than 500 nM.

For the molecule `CC(=O)N1c2ccc(-c3cccc(CNC(=O)Cc4cn5cc(-c6cnc(N)nc6)nc(N6CCOCC6)c5n4)c3)cc2CC[C@@H]1C` [Cpd 025, (S)-N-(3-(1-acetyl-2-methyl-1,2,3,4-tetrahydroquinolin-6-yl)benzyl)-2-(6-(2-aminopyrimidin-5-yl)-8-morpholinoimidazo[1,2-a]pyrazin-2-yl)acetamide], the 50% growth inhibitory concentration (GI50) is 100 to 500 nM.

The molecule `CC(=O)N1c2ccc(-c3ccc(C(=O)N(C)CCN(C)C(=O)c4cn5cc(-c6cnc(N)nc6)nc(N6CCOCC6)c5n4)cc3)cc2CC[C@@H]1C` [Cpd 036, (S)-N-(2-(4-(1-Acetyl-2-methyl-1,2,3,4-tetrahydroquinolin-6-yl)-N-methylbenzamido)ethyl)-6-(2-aminopyrimidin-5-yl)-N-methyl-8-morpholinoimidazo[1,2-a]pyrazine-2-carboxamide] displayed a GI50 greater than 500 nM.

As for `CC(=O)N1c2ccc(-c3ccc(CN(C)C(=O)c4cn5cc(-c6cnc(N)nc6)nc(N6CCOCC6)c5n4)cc3)cc2CC[C@@H]1C` [Cpd 037, (S)-N-(4-(1-acetyl-2-methyl-1,2,3,4-tetrahydroquinolin-6-yl)benzyl)-6-(2-aminopyrimidin-5-yl)-N-methyl-8-morpholinoimidazo[1,2-a]pyrazine-2-carboxamide], the GI50 lay within 100 to 500 nM.

Take `CC(=O)N1c2ccc(-c3ccc(CN(C)C(=O)c4cc5nc(-c6cnc(N)nc6)nc(N6CCOCC6)c5s4)cc3)cc2CC[C@@H]1C` [Cpd 038, (S)-N-(4-(1-acetyl-2-methyl-1,2,3,4-tetrahydroquinolin-6-yl)benzyl)-2-(2-aminopyrimidin-5-yl)-N-methyl-4-morpholinothieno[3,2-d]pyrimidine-6-carboxamide]: the concentration for 50% growth inhibition (GI50) was greater than 500 nM.

In turn, `CC(=O)N1c2ccc(-c3ccc(CN(C)C(=O)c4sc5c(N6CCOCC6)nc(-c6cnc(N)nc6)nc5c4C)cc3)cc2CC[C@@H]1C` [Cpd 039, (S)-N-(4-(1-acetyl-2-methyl-1,2,3,4-tetrahydroquinolin-6-yl)benzyl)-2-(2-aminopyrimidin-5-yl)-N,7-dimethyl-4-morpholinothieno[3,2-d]pyrimidine-6-carboxamide] came in with a concentration for 50% growth inhibition (GI50) greater than 500 nM.

As for `CC(=O)N1c2ccc(-c3ccc(C(=O)NCCCNC(=O)c4cc5nc(-c6cnc(N)nc6)nc(N6CCOCC6)c5s4)cc3)cc2CC[C@@H]1C` [Cpd 040, (S)-N-(3-(4-(1-Acetyl-2-methyl-1,2,3,4-tetrahydroquinolin-6-yl)benzamido)propyl)-2-(2-aminopyrimidin-5-yl)-4-morpholinothieno[3,2-d]pyrimidine-6-carboxamide], the GI50 is greater than 500 nM.

`CC(=O)N1c2ccc(-c3ccc(C(=O)NCCCNC(=O)c4sc5c(N6CCOCC6)nc(-c6cnc(N)nc6)nc5c4C)cc3)cc2CC[C@@H]1C` [Cpd 041, (S)-N-(3-(4-(1-Acetyl-2-methyl-1,2,3,4-tetrahydroquinolin-6-yl)benzamido)propyl)-2-(2-aminopyrimidin-5-yl)-7-methyl-4-morpholinothieno[3,2-d]pyrimidine-6-carboxamide] returned a GI50 greater than 500 nM.

`CC(=O)N1c2ccc(-c3ccc(CN(C)Cc4cc5nc(-c6cnc(N)nc6)nc(N6CCOCC6)c5s4)cc3)cc2CC[C@@H]1C` [Cpd 042, (S)-1-(6-(4-((((2-(2-Aminopyrimidin-5-yl)-4-morpholinothieno[3,2-d]pyrimidin-6-yl)methyl)(methyl)amino)methyl)phenyl)-2-methyl-3,4-dihydroquinolin-1(2H)-yl)ethan-1-one] yielded a GI50 greater than 500 nM.

`CC(=O)N1c2ccc(-c3ccc(CN(C)Cc4sc5c(N6CCOCC6)nc(-c6cnc(N)nc6)nc5c4C)cc3)cc2CC[C@@H]1C` [Cpd 043, (S)-1-(6-(4-((((2-(2-aminopyrimidin-5-yl)-7-methyl-4-morpholinothieno[3,2-d]pyrimidin-6-yl)methyl)(methyl)amino)methyl)phenyl)-2-methyl-3,4-dihydroquinolin-1(2H)-yl)ethan-1-one] had a GI50 greater than 500 nM.

`CC(=O)N1c2ccc(-c3ccc(CCNC(=O)c4cn5cc(-c6cnc(N)nc6)nc(N6CCOCC6)c5n4)cc3)cc2CC[C@@H]1C` [Cpd 044, (S)-N-(4-(1-acetyl-2-methyl-1,2,3,4-tetrahydroquinolin-6-yl)phenethyl)-6-(2-aminopyrimidin-5-yl)-8-morpholinoimidazo[1,2-a]pyrazine-2-carboxamide] displayed a GI50 of 100 to 500 nM.

For `CC(=O)N1c2ccc(-c3ccc(CCNC(=O)c4cc5nc(-c6cnc(N)nc6)nc(N6CCOCC6)c5s4)cc3)cc2CC[C@@H]1C` [Cpd 045, (S)-N-(4-(1-acetyl-2-methyl-1,2,3,4-tetrahydroquinolin-6-yl)phenethyl)-2-(2-aminopyrimidin-5-yl)-4-morpholinothieno[3,2-d]pyrimidine-6-carboxamide], the 50% growth inhibitory concentration (GI50) was no more than 100 nM.

On to `CC(=O)N1c2ccc(-c3ccc(CCNC(=O)c4sc5c(N6CCOCC6)nc(-c6cnc(N)nc6)nc5c4C)cc3)cc2CC[C@@H]1C` [Cpd 046, (S)-N-(4-(1-acetyl-2-methyl-1,2,3,4-tetrahydroquinolin-6-yl)phenethyl)-2-(2-aminopyrimidin-5-yl)-7-methyl-4-morpholinothieno[3,2-d]pyrimidine-6-carboxamide], for which the GI50 is 100 to 500 nM.

The values are drawn from patent US20230312577A1, “DUAL KINASE-BROMODOMAIN INHIBITORS” (MONASH UNIVERSITY, priority 2020, published 2023).
